Our source for the Activity and EC50 values is ChEMBL document CHEMBL4665742 (J Nat Prod, 2020).

Calls of active or inactive are those of the source. The rule behind the calls is not given here.

The subject of experiment [1] is SK-N-BE(2)-M17. As to the kind of experiment: Antiproliferative activity against human SK-N-BE(2)-M17 cells after 24 hrs. In kind it is functional.
The test system of experiment [2] is SK-N-FI. As to the kind of experiment: Antiproliferative activity against human SK-N-FI cells after 24 hrs. The format is functional.
For experiment [3], the system named is SK-N-AS. As to the kind of experiment: Antiproliferative activity against human SK-N-AS cells after 24 hrs. In kind it is functional.
Experiment [4] deals with SK-N-AS. As to the kind of experiment: Induction of apoptosis in human SK-N-AS cells assessed as PARP cleavage at 12.5 to 50 uM after 6 to 24 hrs by […]. The format is functional, cell-based. As to conditions: dose microM 12.5-50, time hrs 6-24.
The test system of experiment [5] is SK-N-BE(2)-M17. As to the kind of experiment: Induction of apoptosis in human SK-N-BE(2)-M17 cells assessed as PARP cleavage at 12.5 to 50 uM after 6 to 24 hrs by […]. The format is functional, cell-based. As to conditions: dose microM 12.5-50, time hrs 6-24.
Experiment [6] deals with Kelly. As to the kind of experiment: (§1) Antiproliferative activity against human Kelly cells after 24 hrs. The format is functional.
Experiment [7] in a line: as §1. As to conditions: read-out: ED50 (the source's name). In kind it is functional.
Experiment [8] deals with Kelly. As to the kind of experiment: Induction of apoptosis in human Kelly cells assessed as PARP cleavage at 12.5 to 50 uM after 6 to 24 hrs by […]. In kind it is functional, cell-based. As to conditions: dose microM 12.5-50, time hrs 6-24.
For experiment [9], the system named is SK-N-FI. As to the kind of experiment: Induction of apoptosis in human SK-N-FI cells assessed as PARP cleavage at 12.5 to 50 uM after 6 to 24 hrs by […]. In kind it is functional, cell-based. As to conditions: dose microM 12.5-50, time hrs 6-24.
Where [10] appears, read: read-out: ED50 (the source's name).

For the compound `NCCCC(N)(C(=O)O)C(F)F` (stereo not given), the Activity entry in the experiment on SK-N-BE(2)-M17 [1], in the experiment with SK-N-FI [2] and in the experiment on SK-N-AS [3] was “Dose-dependent effect” throughout.
With `C=CCS[S+]([O-])CC=C` (stereo not given) [ALLICIN], the Activity result with SK-N-BE(2)-M17 [1], with SK-N-FI [2], in the experiment on Kelly [6] and in the experiment on SK-N-AS [3] was “Dose-dependent effect” in each case. For the same compound, the EC50 in the experiment on SK-N-BE(2)-M17 [1] (setting [10]) was 10.3 µM; with SK-N-FI [2] (setting [10]), 18.1 µM; in experiment [7], 9.21 µM; with SK-N-AS [3] (setting [10]), 19.5 µM. Besides, the outcome with SK-N-AS [4], in the experiment with SK-N-BE(2)-M17 [5], in the experiment with Kelly [8] and with SK-N-FI [9] was Active.
